Laboratory results taken from paper PMC12442081, “Combating Fuel Biocontamination: Tailored Antimicrobial Peptides and an Innovative Delivery Strategy” (ACS Applied Bio Materials, 2025).
Where two headings read alike, the source gives them in different places. Where no end group is shown, it is not given here.

Assays:
[1] = tested on: Sphingomonas paucimobilis (SP); assay type: cell-based
Experimental: (§1) All of the bacterial species were grown overnight at 37 °C in LB broth. 10^7 CFU/mL of cells were resuspended in fresh culture and grown until the mid log phase. , The bacterial cells were adjusted to a concentration of 5 × 10^5 CFU/mL to quantify the MIC. Equal volumes of the respective bacterial cultures were incubated with the serially diluted peptides in 96-well microtiter plate and incubated overnight at 37 °C in ambient air. Microorganisms without peptides were treated as the positive control, while uninoculated broth was used as the negative control. The MIC was taken as the lowest peptide concentration at which observable bacteria growth was inhibited, as measured by a microplate reader (Biotek Synergy H1 microplate reader). Experiments were performed in triplicates, and the mean MIC values were determined. A similar study was performed to understand the effect of peptide purity, i.e., ranging from 70 to 95%, on the peptide MIC.

[2] = tested on: Macrococcus caseolyticus (MC) ATCC 13548; assay type: cell-based
Experimental: as §1

[3] = tested on: Micrococcus yunnanensis (MY) ATCC 12698; assay type: cell-based
Experimental: as §1

[4] = tested on: Bacillus licheniformis (BL) ATCC 14580; assay type: cell-based
Experimental: as §1

[5] = tested on: Dermacoccus nishinomiyaensis (DN) ATCC 29093; assay type: cell-based
Experimental: as §1

[6] = tested on: Pseudomonas aeruginosa (PA) ATCC 39327; assay type: cell-based
Experimental: as §1

[7] = tested on: microbial clusters MY, KR, DN, MC, BL, RM, SP, PA, HR; assay: Broad-spectrum activity score (in-house scoring matrix); conditions: sum over 9 microbial clusters: (+) = 1, (X) = 0, Fuel x = -1
Experimental: Table S4. Summarizing the broad-spectrum activity of the peptides, considering the MIC value/ efficacy to control microbial growth upon fuel co-incubation
Peptides Bacterial clusters Fungal
Actinobacteria Firmicutes Proteobacteria Asco- […]
Peptides identified based on the scoring matrix, where (+) =1 (implying peptide activity in fuel environment); (X) = 0 (implying no activity in the desired range, indicated by microbial proliferation); Fuel x = -1(implying no activity in fuel environment).
Clearly, P17 is the best performing peptide in vitro across diverse microbial phyla as well as when incubated in the fuel environment. Based on the activity of the selected peptides, the best

[8] = HPLC retention time as a function of peptide hydrophobicity; assay type: physicochemical; conditions: chromatographic, Polaris 5 C18-A reverse phase, 0.1% TFA water / 0.1% TFA acetonitrile gradient, 30 min, 300 μM peptide
Experimental: The purity of the peptides was ascertained by high-performance liquid chromatography (HPLC) using Polaris 5 C18-A […] × 4.6 mm reverse phase Zorbax columns from Agilent Technologies. The buffer system contained 0.1% (v/v) TFA in 100% water and 0.1% (v/v) TFA in 100% acetonitrile. Each peptide sample contained 300 μM peptides dissolved in an acetonitrile–water (1:4) mixture. A constant gradient of the two solvent systems was used to generate the chromatogram for 30 min after sample injection.

[9] = tested on: Sphingomonas paucimobilis (SP); assay: Effectiveness of peptides on spiked fuel samples (aqueous layer); assay type: cell-based; design: key: (+) =1 (implying peptide activity in fuel environment); (X) = 0 (implying no activity in the desired range, indicated by microbial proliferation); Fuel x = -1(implying no activity in fuel environment); conditions: initial screening in spiked fuel
Experimental: (§2) To study the partitioning of microbes in fuel tanks, filter-sterilized fuel was mixed with BH medium in a 1:1 (v/v) ratio. The inoculum was added to the aqueous phase at the bottom to simulate growth in the aqueous layer of fuel tanks and incubated aerobically at 30 °C for 30 days. Visible growth was assessed, and aliquots from both the aqueous and fuel phases were plated on nutrient agar plates to evaluate microbial growth. Peptides were initially added to the aqueous layer of microbially spiked fuel samples for screening the effectiveness in the fuel environment. The study was further extended over a longer duration, and incubated under aerobic conditions at 30 °C for 30 days. Microbial growth was monitored at regular intervals by plating aliquots from the aqueous layer on the nutrient agar plates.
(§3) The engineered peptides were administered at their respective MICs to the aqueous layer of simulated fuel samples, and samples from both the aqueous and solvent (fuel) layers were removed at intervals of 7, 14, 21, and 30 days and plated on LBA plates to assess cell viability (Table S5).

Roseomonas mucosa (RM) = assay: as above; assay type: cell-based; design: key: (+) =1 (implying peptide activity in fuel environment); (X) = 0 (implying no activity in the desired range, indicated by microbial proliferation); Fuel x = -1(implying no activity in fuel environment); conditions: initial screening in spiked fuel
Experimental: as §2, §3

Hormoconis resinae (HR) = assay: as above; assay type: cell-based; design: key: (+) =1 (implying peptide activity in fuel environment); (X) = 0 (implying no activity in the desired range, indicated by microbial proliferation); Fuel x = -1(implying no activity in fuel environment); conditions: initial screening in spiked fuel
Experimental: as §2, §3

[10] = tested on: Macrococcus caseolyticus (MC); assay: as above; assay type: cell-based; design: key: (+) =1 (implying peptide activity in fuel environment); (X) = 0 (implying no activity in the desired range, indicated by microbial proliferation); Fuel x = -1(implying no activity in fuel environment); conditions: initial screening in spiked fuel
Experimental: as §2, §3

Kocuria rosea (KR) = assay: as above; assay type: cell-based; design: key: (+) =1 (implying peptide activity in fuel environment); (X) = 0 (implying no activity in the desired range, indicated by microbial proliferation); Fuel x = -1(implying no activity in fuel environment); conditions: initial screening in spiked fuel
Experimental: as §2, §3

[11] = tested on: Micrococcus yunnanensis (MY); assay: as above; assay type: cell-based; design: key: (+) =1 (implying peptide activity in fuel environment); (X) = 0 (implying no activity in the desired range, indicated by microbial proliferation); Fuel x = -1(implying no activity in fuel environment); conditions: initial screening in spiked fuel
Experimental: as §2, §3

[12] = tested on: Dermacoccus nishinomiyaensis (DN); assay: as above; assay type: cell-based; design: key: (+) =1 (implying peptide activity in fuel environment); (X) = 0 (implying no activity in the desired range, indicated by microbial proliferation); Fuel x = -1(implying no activity in fuel environment); conditions: initial screening in spiked fuel
Experimental: as §2, §3

[13] = tested on: Bacillus licheniformis (BL); assay: as above; assay type: cell-based; design: key: (+) =1 (implying peptide activity in fuel environment); (X) = 0 (implying no activity in the desired range, indicated by microbial proliferation); Fuel x = -1(implying no activity in fuel environment); conditions: initial screening in spiked fuel
Experimental: as §2, §3

[14] = tested on: Pseudomonas aeruginosa (PA); assay: as above; assay type: cell-based; design: key: (+) =1 (implying peptide activity in fuel environment); (X) = 0 (implying no activity in the desired range, indicated by microbial proliferation); Fuel x = -1(implying no activity in fuel environment); conditions: initial screening in spiked fuel
Experimental: as §2, §3

[15] = tested on: Kocuria rosea (KR) ATCC 186; assay type: cell-based
Experimental: as §1

[16] = LB broth, 5 × 10^5 CFU/mL, overnight 37 °C, mean of triplicates, “–” = no detectable activity

## CC[C@H](C)[C@H](N)C(=O)N[C@@H](CC(C)C)C(=O)N[C@H](C(=O)N[C@@H](Cc1c[nH]c2ccccc12)C(=O)N[C@@H](CCCCN)C(=O)N[C@@H](Cc1c[nH]c2ccccc12)C(=O)N1CCC[C@H]1C(=O)N[C@@H](Cc1c[nH]c2ccccc12)C(=O)N[C@@H](Cc1c[nH]c2ccccc12)C(=O)N1CCC[C@H]1C(=O)N[C@@H](Cc1c[nH]c2ccccc12)C(=O)N[C@@H](CCCNC(=N)N)C(=O)N[C@@H](CCCNC(=N)N)C(=O)O)C(C)C [P12]
[1]
  MIC: 0.9 µM
[2]
  MIC: 0.9 µM
[3]
  MIC: 0.9 µM
[4]; ATCC 14580
  MIC: 3.9 µM
[5]
  MIC: 0.9 µM
[6]; ATCC 39327
  MIC: 7.8 µM
[7]
  Score: 4
[8]
  R t, retention time of peptide on HPLC column as a function of peptide hydrophobicity: 12.903 min
[9]
  activity considering MIC value/efficacy upon fuel co-incubation: +
Roseomonas mucosa (RM)
  activity considering MIC value/efficacy upon fuel co-incubation: X
Hormoconis resinae (HR)
  activity considering MIC value/efficacy upon fuel co-incubation: X
[10]
  activity considering MIC value/efficacy upon fuel co-incubation: +
Kocuria rosea (KR)
  activity considering MIC value/efficacy upon fuel co-incubation: X
[11]
  activity considering MIC value/efficacy upon fuel co-incubation: X
[12]
  activity considering MIC value/efficacy upon fuel co-incubation: +
[13]
  activity considering MIC value/efficacy upon fuel co-incubation: +
[14]
  activity considering MIC value/efficacy upon fuel co-incubation: X

## CC(C)C[C@H](NC(=O)[C@@H](N)Cc1ccc(O)cc1)C(=O)N1CCC[C@H]1C(=O)N[C@@H](Cc1c[nH]c2ccccc12)C(=O)N[C@@H](CCCCN)C(=O)N[C@@H](Cc1c[nH]c2ccccc12)C(=O)N1CCC[C@H]1C(=O)N[C@@H](Cc1c[nH]c2ccccc12)C(=O)N[C@@H](Cc1c[nH]c2ccccc12)C(=O)N1CCC[C@H]1C(=O)N[C@@H](Cc1c[nH]c2ccccc12)C(=O)N[C@@H](CCCNC(=N)N)C(=O)N[C@@H](CCCNC(=N)N)C(=O)O [P14]
[1]
  MIC: 0.9 µM
[15]
  MIC: 0.9 µM
[4]; ATCC 14580
  MIC: 3.9 µM
[7]
  Score: 1
[8]
  R t, retention time of peptide on HPLC column as a function of peptide hydrophobicity: 12.279 min
[9]
  activity considering MIC value/efficacy upon fuel co-incubation: +
Roseomonas mucosa (RM)
  activity considering MIC value/efficacy upon fuel co-incubation: X
Hormoconis resinae (HR)
  activity considering MIC value/efficacy upon fuel co-incubation: X
[10]
  activity considering MIC value/efficacy upon fuel co-incubation: X
Kocuria rosea (KR)
  activity considering MIC value/efficacy upon fuel co-incubation: Fuel x
[11]
  activity considering MIC value/efficacy upon fuel co-incubation: X
[12]
  activity considering MIC value/efficacy upon fuel co-incubation: X
[13]
  activity considering MIC value/efficacy upon fuel co-incubation: +
[14]
  activity considering MIC value/efficacy upon fuel co-incubation: X

## CC[C@H](C)[C@H](N)C(=O)N[C@@H](CC(C)C)C(=O)N[C@@H](Cc1c[nH]c2ccccc12)C(=O)N[C@@H](Cc1c[nH]c2ccccc12)C(=O)N[C@@H](CCCCN)C(=O)N[C@@H](Cc1c[nH]c2ccccc12)C(=O)N1CCC[C@H]1C(=O)N[C@@H](Cc1c[nH]c2ccccc12)C(=O)N[C@@H](Cc1c[nH]c2ccccc12)C(=O)N1CCC[C@H]1C(=O)N[C@@H](Cc1c[nH]c2ccccc12)C(=O)N[C@@H](CCCNC(=N)N)C(=O)N[C@@H](CCCNC(=N)N)C(=O)O [P15]
[1]
  MIC: 0.9 µM
[2]
  MIC: 0.9 µM
[4]; ATCC 14580
  MIC: 0.9 µM
[7]
  Score: 3
[8]
  R t, retention time of peptide on HPLC column as a function of peptide hydrophobicity: 14.327 min
[9]
  activity considering MIC value/efficacy upon fuel co-incubation: +
Roseomonas mucosa (RM)
  activity considering MIC value/efficacy upon fuel co-incubation: X
Hormoconis resinae (HR)
  activity considering MIC value/efficacy upon fuel co-incubation: X
[10]
  activity considering MIC value/efficacy upon fuel co-incubation: +
Kocuria rosea (KR)
  activity considering MIC value/efficacy upon fuel co-incubation: X
[11]
  activity considering MIC value/efficacy upon fuel co-incubation: X
[12]
  activity considering MIC value/efficacy upon fuel co-incubation: X
[13]
  activity considering MIC value/efficacy upon fuel co-incubation: +
[14]
  activity considering MIC value/efficacy upon fuel co-incubation: X

## ILPWKFPWWPWRR [P9]
[1]
  MIC: 7.8 µM
[2]
  MIC: 0.9 µM
[3]
  MIC: 0.9 µM
[4]; ATCC 14580
  MIC: 3.9 µM
[5]
  MIC: 0.9 µM
[6]; ATCC 39327
  MIC: 31.25 µM
[7]
  Score: 4
[8]
  R t, retention time of peptide on HPLC column as a function of peptide hydrophobicity: 12.610 min
[9]
  activity considering MIC value/efficacy upon fuel co-incubation: X
Roseomonas mucosa (RM)
  activity considering MIC value/efficacy upon fuel co-incubation: X
Hormoconis resinae (HR)
  activity considering MIC value/efficacy upon fuel co-incubation: X
[10]
  activity considering MIC value/efficacy upon fuel co-incubation: +
Kocuria rosea (KR)
  activity considering MIC value/efficacy upon fuel co-incubation: X
[11]
  activity considering MIC value/efficacy upon fuel co-incubation: +
[12]
  activity considering MIC value/efficacy upon fuel co-incubation: +
[13]
  activity considering MIC value/efficacy upon fuel co-incubation: +
[14]
  activity considering MIC value/efficacy upon fuel co-incubation: X

## ILPWRWPWWPWRR [P10]
[1]; [16]
  MIC: 7.8 µM
[4]; [16]
  MIC: 3.9 µM
[6]; [16]
  MIC: 31.25 µM
[7]
  Score: 1
[8]
  R t, retention time of peptide on HPLC column as a function of peptide hydrophobicity: 12.417 min
[9]
  activity considering MIC value/efficacy upon fuel co-incubation: X
Roseomonas mucosa (RM)
  activity considering MIC value/efficacy upon fuel co-incubation: X
Hormoconis resinae (HR)
  activity considering MIC value/efficacy upon fuel co-incubation: X
[10]
  activity considering MIC value/efficacy upon fuel co-incubation: X
Kocuria rosea (KR)
  activity considering MIC value/efficacy upon fuel co-incubation: X
[11]
  activity considering MIC value/efficacy upon fuel co-incubation: X
[12]
  activity considering MIC value/efficacy upon fuel co-incubation: X
[13]
  activity considering MIC value/efficacy upon fuel co-incubation: +
[14]
  activity considering MIC value/efficacy upon fuel co-incubation: X
